Conditions in the first series: not given
For the compound `Clc1ccc(C(Cl)Cl)c(Cl)c1Cl`, the boiling point is 278 °C and the melting point was 84 °C.

`CCN(CC)c1ccc2c(-c3ccccc3C(=O)O)c3ccc(N(CC)CC)cc3[o+]c2c1.[Cl-]` displayed a melting point of 165 °C.

Compound `C=Cc1cc(C)ccc1C` had a log10 vapour pressure (mmHg) of 0 and a melting point of -35 °C.

Take `CC(=O)c1ccccc1Cl`: the ready biodegradability entry was “not readily biodegradable”.

Compound `C=C(C)C(C)C` gave a boiling point of 55.6 °C, a log10 vapour pressure (mmHg) of 2.4 and a melting point of -157 °C.

Take `Cc1ncc[nH]1`: the boiling point came out at 267 °C, the melting point came to 144 °C and the ready biodegradability result is reported as “not readily biodegradable”.

Regarding `Oc1cccc(O)c1O`, the boiling point was 309 °C, the log10 vapour pressure (mmHg) was -3.32, the melting point turned out to be 133 °C and the ready biodegradability result is given as “readily biodegradable”.

For the compound `CCCCCCCCCBr`, the log10 vapour pressure (mmHg) was -0.921.

`FCI` had a boiling point of 53.4 °C.

As for `BrC1CCCCC1`, the boiling point was found to be 166 °C and the melting point is -56.5 °C.

Consider `CCCCCCCCCCCCCCCCC`, for which the boiling point was 302 °C, the log10 biodegradation half-life (days) is 1.3, the log10 vapour pressure (mmHg) is -3.64 and the melting point was determined as 22 °C. Moreover, the ready biodegradability entry was “readily biodegradable”.

On to `CCC(=O)NC`, for which the boiling point was found to be 148 °C, the log10 vapour pressure (mmHg) worked out at 0.0603 and the melting point is -30.9 °C.

In the case of `Nc1ccc(F)c(Cl)c1`, the boiling point turned out to be 228 °C and the melting point stood at 45.5 °C.

`CC(=O)c1cccc(C#N)c1`: the melting point was determined as 99 °C.

For the compound `COCC(C)=O`, the boiling point was 116 °C.

Turning to `CC1(C)[C@@H]2CC(=O)[C@@](C)(O)[C@H]1C2`, the melting point came to 38.5 °C.

Compound `O=C(Cc1c(Cl)ccc(Cl)c1Cl)[O][Na]` showed a log10 Koc (L/kg) of 1.72.

Consider `OCc1ccccc1Cl`, for which the boiling point was determined as 230 °C and the melting point was found to be 73 °C.

Regarding `Ic1cccc2ccccc12`, the boiling point is 302 °C, the melting point was found to be 4.2 °C and the ready biodegradability entry is listed as “readily biodegradable”.

As to `CCCN(CCC)C(=O)SCC`, the log10 Koc (L/kg) came to 2.38 and the log10 vapour pressure (mmHg) is -1.62.

As for `C=CC`, the boiling point was -48 °C, the log10 Henry constant (atm·m³/mol) was -0.708, the log10 vapour pressure (mmHg) turned out to be 3.94 and the melting point is -185 °C.

As for `CN(C)c1ccc(N=NS(=O)(=O)O)cc1`, the log10 Koc (L/kg) came out at 1.18.

On to `CC(CCl)OP(=O)(OC(C)CCl)OC(C)CCl` (configuration not stated), for which the melting point is -40 °C and the ready biodegradability entry was “not readily biodegradable”.

Consider `C[C@@H]1N[C@@H]2CCCCCCCC(=O)O[C@H]3CC[C@@H](CCCCCCCC(=O)O[C@H]1CC2)N[C@H]3C`, for which the melting point is 121 °C.

Take `O=C(NC(=O)c1c(F)cccc1F)Nc1cc(Cl)c(OC(F)(F)C(F)C(F)(F)F)cc1Cl` (configuration not stated): the melting point was found to be 166 °C.

In the case of `O=C(O)c1cccc(C(=O)O)c1C(=O)O`, the melting point is 200 °C.

As for `CC(=O)OCC(=O)[C@@]1(O)CC[C@H]2[C@@H]3CCC4=CC(=O)CC[C@]4(C)[C@H]3C(=O)C[C@@]21C`, the melting point is 222 °C.

Take `CN(C)CCC=C1c2ccccc2CCc2ccccc21`: the melting point is 196 °C.

`O=C(c1ccccc1)c1ccccc1O` gave a melting point of 40 °C.

Regarding `CCCCCCCCCCCN`, the boiling point was 242 °C and the melting point was found to be 17 °C.

For `CC(C)(S)C(=O)O`, the melting point turned out to be 47 °C.

For `CCCCCCCCCCCC(=O)[O][Na]`, the ready biodegradability result is listed as “readily biodegradable”.

Turning to `NNS(=O)(=O)c1ccc(Oc2ccc(S(=O)(=O)NN)cc2)cc1`, the ready biodegradability result is reported as “not readily biodegradable”.

On to `OCCOCCOCCOCCO`, for which the boiling point was 328 °C and the log10 vapour pressure (mmHg) was -4.33.

Compound `ClC1CCCC1` had a boiling point of 114 °C.

For the compound `O=C1CN(N=Cc2ccc([N+](=O)[O-])o2)C(=O)N1`, the melting point was 263 °C.

In turn, `C1CNCCNC1` yielded a boiling point of 169 °C and a melting point of 43.5 °C.

The compound `CCC1CCCC1` yielded a boiling point of 104 °C, a log10 biodegradation half-life (days) of 1.18, a log10 vapour pressure (mmHg) of 1.6 and a melting point of -138 °C.

The compound `O=C[O-].[NH4+]` displayed a melting point of 116 °C.

With `FC(F)(F)C(Cl)=C(Cl)Cl`, the boiling point turned out to be 88.1 °C.

For the compound `CCOC(=O)C(=O)Nc1ccccc1`, the boiling point was 280 °C and the melting point came out at 65.5 °C.

Take `CCOCCOCC`: the boiling point was 119 °C, the log10 vapour pressure (mmHg) was 1.53 and the melting point was -74 °C.

For `CC(=O)CC(c1ccco1)c1c(O)c2ccccc2oc1=O` (configuration not stated), the melting point was determined as 124 °C.

As to `CN1C2CCC1CC(OC(=O)c1ccccc1)C2` (configuration not stated), the melting point came out at 49 °C.

On to `CCCCCC(=O)OC`, for which the boiling point amounted to 150 °C, the log10 Henry constant (atm·m³/mol) was -3.44, the log10 vapour pressure (mmHg) was 0.57 and the melting point was -71 °C.

`FC(F)C(F)Cl` (configuration not stated) showed a boiling point of 17 °C.

Compound `CCCCCCCCCCCCCCCCCCCC` showed a boiling point of 343 °C, a log10 biodegradation half-life (days) of 1.4, a log10 vapour pressure (mmHg) of -5.34 and a melting point of 36.8 °C. Besides, the ready biodegradability result is recorded as “readily biodegradable”.

The compound `C#CC(C)=O` registered a boiling point of 84 °C.

For `OCCO`, the boiling point came out at 197 °C, the log10 Henry constant (atm·m³/mol) was -7.22, the log10 vapour pressure (mmHg) was -1.04 and the ready biodegradability entry is given as “readily biodegradable”.

`O=C(O)c1cccc(I)c1`: the melting point was 188 °C.

Turning to `CCC(C)(C)CC(C)C`, the boiling point came out at 131 °C, the log10 vapour pressure (mmHg) was 1.13 and the melting point was -113 °C.

Regarding `ClC=CCCl`, the ready biodegradability entry is “not readily biodegradable”.

`CC1CCC2CC1C2(C)C` (configuration not stated): the boiling point amounted to 160 °C.

The compound `O=C1CCC(N2C(=O)c3ccccc3C2=O)C(=O)N1` (configuration not stated) showed a melting point of 270 °C.

In turn, `CC(=O)C(=O)CC(C)C` showed a boiling point of 138 °C.

In turn, `COC(=O)c1ccccc1OC` had a boiling point of 246 °C.

In turn, `C=CC(C)(C)CCC` came in with a boiling point of 104 °C.

As to `OCc1cc(Br)ccc1O`, the melting point turned out to be 113 °C.

On to `CCOP(=O)([O-])C(N)=O.[NH4+]`, for which the melting point stood at 175 °C.

Regarding `NCCCN1CCN(CCCN)CC1`, the melting point amounted to 15 °C.

`CCCCOCC1CO1` (configuration not stated): the boiling point is 165 °C, the log10 vapour pressure (mmHg) was found to be 0.505 and the ready biodegradability entry is listed as “readily biodegradable”.

On to `Cc1nc2cc(-c3ccccc3)ccc2o1`, for which the melting point stood at 63 °C.

The compound `O=C(Oc1ccc2ccccc2c1)c1ccccc1` showed a melting point of 107 °C.

For the compound `CCCCCCCI`, the boiling point worked out at 204 °C, the log10 Henry constant (atm·m³/mol) was -1.41, the log10 vapour pressure (mmHg) is -0.351 and the melting point is -48.2 °C.

In turn, `CO[C@H]1C=CO[C@@]2(C)Oc3c(C)c(O)c4c(O)c(cc(O)c4c3C2=O)NC(=O)C(C)=CC=C[C@H](C)[C@H](O)[C@@H](C)[C@@H](O)[C@@H](C)[C@H](OC(C)=O)[C@@H]1C` registered a melting point of 300 °C.

With `Clc1cccc(Oc2ccccc2)c1`, the log10 vapour pressure (mmHg) is -2.42.

As for `CCC(CC)c1ccncc1`, the boiling point came to 217 °C and the melting point was determined as 126 °C.

For `C=CCN(CC=C)c1c(C)cc(OC(=O)NC)cc1C`, the melting point worked out at 67 °C.

`CC(=O)c1ccc([N+](=O)[O-])cc1`: the melting point is 81.8 °C.

With `CC(C)OC(=O)C(C)O` (configuration not stated), the boiling point was 167 °C.

In the case of `CCc1ncc(C)cc1C`, the boiling point was found to be 198 °C.

Take `C#CCCCCCCC(=O)O`: the melting point amounted to 19 °C.

In the case of `C=C(C)C(=O)OCc1ccccc1`, the ready biodegradability entry is on record as “readily biodegradable”.

`CCNC(=O)C(C)OC(=O)Nc1ccccc1` (configuration not stated) registered a melting point of 119 °C.

The compound `CCCCCCCCCCCF` yielded a log10 vapour pressure (mmHg) of -0.682.

Turning to `CC(C)=CCC(C)C`, the boiling point is 112 °C and the log10 vapour pressure (mmHg) was 1.4.

Compound `CC(C)CC(=O)C(C)C` registered a boiling point of 148 °C.

On to `COC(=O)CCC(=O)OC`, for which the boiling point was 196 °C, the log10 vapour pressure (mmHg) is -0.387, the melting point came to 19 °C and the ready biodegradability entry is recorded as “readily biodegradable”.

On to `COc1ccc(C(=O)c2ccccc2O)c(O)c1`, for which the melting point came out at 68 °C.

Still in this series, the particulars now being: fish.
For the compound `CC(CCl)OP(=O)(OC(C)CCl)OC(C)CCl` (configuration not stated), the log10 BCF came to 0.9 and the log10 biotransformation half-life (days) was -1.31.

For orientation: boiling point means the temperature at which the vapour pressure of the liquid equals the pressure above it. What is called melting point is the temperature, or range, at which the solid turns liquid.

The values above are taken from the OPERA property sets (Mansouri et al. 2018).
